Data published in US12097174B2, “Methods and agents that enhance myogenic progenitor cell engraftment” (President and Fellows of Harvard College, priority 2018, dated 2024).
Entries after “also recorded” stand apart in the source; their conditions may differ.

Assays:
[1] = tested on: Zebrafish myogenic progenitor cells (ZeMPCs); experiment: Limiting dilution engraftment assay (ELDA): cells treated ex vivo, transplanted into adult zebrafish, imaged at 7 dpt; assay type: in vivo
Description: Donor cells were derived from embryos that contained a GFP cassette driven by the promoter for mylz2, a muscle-specific structural protein. Recipients were optically clear, immunocompromised adult prkdc−/− zebrafish. To perform a limiting dilution assay, three doses (n=100, 200, and 400 cells) were administered per treatment (n=10 engraftment events per treatment-dose combination). The estimated engrafting cell frequency was calculated using the Extreme Limiting Dilution Analysis (ELDA, Hu et. al. 2009), which provides the most likely estimate (MLE) of engrafting cell frequency.
Given that this group of 230 lipids is too many to be examined in mice, transplantation efficiency was instead examined via limit-dilution assays in 15 recipient zebrafish per compound after a brief (4 hour) ex vivo chemical exposure. Positive hits from this primary screening were rescreened in replicate transplantation experiments incorporating dose response testing.
Lipids are frequently found to enhance cell migration and homeostasis in blood and muscle tissue (Cencetti et al., 2014; Lahvic et al., 2018; Li et al., 2015; Oh et al., 2016), and so it was elected to screen mainly bioactive lipids in efforts to identify compounds that enhance ZeMPCs engraftment efficiency in vivo. Myogenic progenitor cells were treated for 4 hours with one of the 188 unique lipid compounds contained in the ICCB Known Bioactives Library. Compound-treated cells were then harvested and transplanted intramuscularly into both flanks of 5 different casper recipient fish, with transplants performed at each of 3 transplanted cell doses (25, 75 or 150 cells). In these studies, recipient fish received split-dose irradiation of 15 Gy at 2 days and 1 day prior to transplantation to suppress any immune responses to the transplanted cells. Engraftment efficiency was measured by imaging casper recipients at 7 dpt (FIG. 18A). […] For this secondary screening approach, cells were transplanted into prkdc^D3612ls casper fish, which are deficient in mature T and B cells, and assayed engraftment efficiency in the recipient fish 7 days post-transplantation. Two compounds were identified, lysophosphatidic acid (LPA) and niflumic acid (NFA), which increased ZeMPC engraftment efficiency in both of these assay systems (FIG. 12B).
Lipids from the ICCB Known Bioactives Library (enzolifesciences.com/BML-2840/iccb-known-bioactives-library) were diluted at a 1:100 ratio in transplantation media (zESC medium without bFGF and FBS) and added to prewashed in vitro expanded muscle cells. NFA (Cayman and Santa Cruz Biotechnology) and LPA (Cayman and Santa Cruz Biotechnology) were used for the secondary confirmation screening experiments. […] 4- to 8-month-old casper recipients received split-dose irradiation of 15 Gy each, either 2 days or 1 day before transplantation. For LDA screening, cells were transplanted into each side of 5 pre-irradiated casper recipient fish or 5 non-irradiated prkdc-mutant recipient zebrafish. At 7 dpt, the recipients were anaesthetized using a previously described method (Dang et al., 2016) and imaged using a fluorescent stereo microscope (Leica M165 FC). Successful engraftment was defined as the presence of GFP+ fibers. Variation in different experiments is caused by inherent variability in the in vitro ZeMPC derivation procedure, which results in differences in engrafting cell frequency across different derivation attempts. To mitigate the impact of such experimental variation on screening results, only LDA results for cells derived from the same cultures were compared. Comparison to a vehicle-treated experimental control was included in every transplantation experiment. Next, the chemical treated cell potency and vehicle-treated cell potency was measured using the Extreme Limiting Dilution Analysis (ELDA) software (Hu and Smyth, 2009). The ratio of the treated cell potency and vehicle-treated cell potency determine the engraftment efficiency fold increase value.

ZeMPCs = experiment: Calcium imaging in Fura-2, AM treated ZeMPCs (single-cell imaging); assay type: cell-based, zebrafish; settings: 10 μM NFA, 5 μM LPA, 10 μM ionomycin; 10-20 seconds after loading
Description: Fura-2, AM treated ZeMPCs were exposed to 10 μM NFA, 5 μM LPA, 10 μM lonomycin (as a positive control) and DMSO (as vehicle control) to visualize their effect on intracellular calcium ion concentration using single-cell imaging. […] Scale bar 50 μm.
(§1) The ZeMPCs and C2C12 cells were incubated with Fura-2, AM (Thermo Fisher Sci F1225), a cell permeant fluorescent calcium ion indicator, for 45 minutes at 28.5° C. and 37° C., respectively, followed by imaging with Celldiscoverer7 Microscope (Zeiss). 20 seconds after imaging initiation the treatment was added to the cells and continued for a total of 2-3 minutes.

C2C12 cells = experiment: Calcium imaging in Fura-2, AM treated C2C12 cells (single-cell imaging); assay type: cell-based, mouse; settings: 10 μM NFA, 5 μM LPA; 10-20 seconds after loading
Description: Fura-2, AM treated C2C12 cells were exposed to 10 μM NFA, 5 μM LPA or DMSO as vehicle control to visualize the effect on intracellular calcium ion concentration using single-cell imaging. […] Scale bar 50 μm.
as §1

Row | SMILES | engraftment frequency ([1]; concurrent injection of donor cells with 10 uM MFA) | estimated engrafting cell frequency / engraftment ([1]; donor cells treated 2 hours with 10 uM MFA before transplantation, vs vehicle, p=0.0367) | engraftment efficiency of treated ZeMPCs ([1]; prkdc-mutant zebrafish, vs vehicle-treated controls) | intracellular calcium ion concentration (ZeMPCs) | intracellular calcium ion concentration (C2C12 cells)
1 | Cc1ccc(Cl)c(Nc2ccccc2C(=O)O)c1Cl [MFA, meclofenamic acid] | not sufficient to increase engraftment frequency | increase the engraftment capacity; also recorded: optimally increase engraftment; also recorded: higher | – | – | –
2 | C[C@H](CCC(=O)O)C[C@H](C)C[C@H](C)C(=O)/C=C(\O)[C@H](C)C[C@H](C)C/C=C/[C@@H](C)[C@@H](O)[C@@H](C)[C@@H](O)C[C@@H]1CC[C@@](C)([C@H]2CC[C@@](C)([C@@H](C)O)O2)O1 [ionomycin] | – | – | increased the engraftment efficiency | increase | increase
